Data: patent publication US20220411362A1, “DITERPENOID COMPOUNDS THAT ACT ON PROTEIN KINASE C (PKC)” (K-Gen, Inc., priority 2019, published 2022)
pKi: −log10 of the molar value. Read-outs that look alike come from different tables or passages of the source.

How the values were obtained:
[1] = system: A549 non-small cell lung cancer cell line; assay: Proliferation of A549 (CellTiter Glo); type: cell-based; conditions: read-out: IC50 μM (A549 Cell Line)
Method: The diterpenoid compounds were tested in A549, a non-small cell lung cancer cell line harboring a K-Ras activating mutation. Briefly, A549 cells at a density of 1,000 cells/well were seeded in 96-well plates and incubated at 37° C. for 24 hours. A series of different concentrations of compound stocks (500×) were prepared by 3-fold serial dilution in DMSO. These compounds were further diluted in culture media and then added to cells so that the final DMSO concentration was not exceeding 0.25%. After 96 hours of incubation, 50 μL of CellTiter Glo reagent (Promega) was added to each well and luminescence was measured after 10 minutes using EnVision (PerkinElmer). Luminescence from cells treated with DMSO alone was set as Max and % of inhibition was calculated as follows: Inhibition %=(Max−Sample value)/Max×100. Data was analyzed using XL-fit software (ID Business Solutions Ltd.) and IC50, relative IC50, and % of top inhibition was calculated. Some of the compounds in this disclosure were very potent in blocking proliferation of A549 lung cancer cells at low nM range. In addition, potency of inhibiting A549 proliferation correlated well with its binding affinity to PKCs for this series of compounds. In other words, higher affinity binders had stronger inhibitory effects on A549 proliferation. This further support the notion that activation, rather than inhibition, of certain PKC isoforms is required to block proliferation of cancer cells, some of which may harbor K-Ras mutations. This is in sharp contrast to previous literature and common belief that inhibition of PKC is necessary to block cancer cell growth (Kang, 2014, New Journal of Science, 2014:1-36). Data presented here is in agreement with recent findings that many loss-of-function but not gain-of-function mutations of PKC isoforms have been identified in many human cancers (Antal et al., 2015, Cell, 160:489-502).

[2] = target: T1, C1b domain of human PKCα (Homo sapiens, UniProt P17252); assay: biochemical; type: binding; conditions: 3H-PDBu competition; for pKi: Ki PKCα
T1 construct: Genes encoding C1b domains of human PKCα, δ, ε, θ, and PKD1 (PKCμ) were synthesized; made in house; host or cells: E. coli BL21(DE3)
Method: (§1) Compounds described in this disclosure were tested for binding affinity to C1b domain of PKC isoforms. Compound binding affinity to C1b domain of PKC isoforms was derived from competitive binding assay using radioactive tracer ^3H-PDBu and recombinant GST-C1b or full-length of human PKC proteins based on modified procedures from Methods in Molecular Biology, vol.
(§2) Genes encoding C1b domains of human PKCα, δ, ε, θ, and PKD1 (PKCμ) were synthesized and inserted into pGEX-2TK or pGEX-4T1 vectors for expression and production of GST-C1b proteins in E. coli BL21(DE3) via IPTG induction. The target proteins were purified by glutathione sepharose 4B and followed by ion exchange chromatography if needed to achieve purity >70%. Aliquots of the purified proteins were stored at −80 degree for binding assay (storage buffer: 20 mM Tris pH 8.0, 200 mM NaCl, 10% glycerol, 1 mM DTT).
The plate was incubated at 37° C. on a shaker at 300 rpm for 10 minutes and then put on ice for 20 minutes. […] The bottom of the filter plate was sealed and 50 μL of MicroScint-20 (PerkinElmer) cocktail was added to each well. ^3H-PDBu trapped in each well was counted using PerkinElmer MicroBeta2 Reader. […] Kd is the binding affinity of each protein preparation to ^3H-PDBu, determined experimentally.

[3] = target: T2, C1b domain of human PKCδ (Homo sapiens, UniProt Q05655); assay: Competitive 3H-PDBu binding to C1b domain of PKCδ; conditions: 3H-PDBu competition
T2 construct: Genes encoding C1b domains of human PKCα, δ, ε, θ, and PKD1 (PKCμ) were synthesized; made in house; host or cells: E. coli BL21(DE3)
T2 sequence (Q05655 230-280 limits assumed): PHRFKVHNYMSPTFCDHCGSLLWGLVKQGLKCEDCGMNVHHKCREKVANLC
Method: as §1, §2
(§3) The plate was incubated at 37° C. on a shaker at 300 rpm for 10 minutes and then put on ice for 20 minutes. […] The bottom of the filter plate was sealed and 50 μL of MicroScint-20 (PerkinElmer) cocktail was added to each well. ^3H-PDBu trapped in each well was counted using PerkinElmer MicroBeta2 Reader. Data were analyzed using GraphPad Prism5 with the model “log(inhibitor) vs. response-variable slope” to fit the IC50, and then IC50 was transformed to Ki using Cheng-Prusoff equation: Ki=IC50/(1+added radio ligand/Kd). Kd is the binding affinity of each protein preparation to ^3H-PDBu, determined experimentally.

[4] = target: T3, C1b domain of human PKD1 (PKCμ) (Homo sapiens, UniProt Q15139); assay: biochemical; type: binding
T3 construct: Genes encoding C1b domains of human PKCα, δ, ε, θ, and PKD1 (PKCμ) were synthesized; made in house; host or cells: E. coli BL21(DE3)
T3 sequence (Q15139 270-320 limits assumed): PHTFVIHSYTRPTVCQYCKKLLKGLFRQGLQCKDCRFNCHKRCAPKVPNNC
Method: as §1, §2, §3

[5] = target: T4, C1b domain of human PKCθ (Homo sapiens, UniProt Q04759); assay: Competitive 3H-PDBu binding to C1b domain of PKCθ
T4 construct: Genes encoding C1b domains of human PKCα, δ, ε, θ, and PKD1 (PKCμ) were synthesized; made in house; host or cells: E. coli BL21(DE3)
T4 sequence (Q04759 231-281 limits assumed): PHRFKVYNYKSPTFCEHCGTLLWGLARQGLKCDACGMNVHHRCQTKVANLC
Method: as §1, §2, §3

[6] = target: T5, C1b domain of human PKCε (Homo sapiens, UniProt Q02156); assay: Competitive 3H-PDBu binding to C1b domain of PKCε
T5 construct: Genes encoding C1b domains of human PKCα, δ, ε, θ, and PKD1 (PKCμ) were synthesized; made in house; host or cells: E. coli BL21(DE3)
T5 sequence (Q02156 242-292 limits assumed): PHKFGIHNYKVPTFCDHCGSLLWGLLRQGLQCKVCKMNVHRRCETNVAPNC
Method: as §1, §2, §3

| SMILES | IC50 ([1]; Homo sapiens, A549, 96 h) | pKi [2] | pKi ([3]; Ki PKCδ) | pKi [4] | pKi [5] | Ki PKCα [2] | pKi [6] | IC50 ([1]; A549, 96 hours incubation, CellTiter Glo) | pKi ([5]; C1b domain of human PKCθ, 3H-PDBu competition, read-out: Ki PKCθ) | pKi ([6]; C1b domain of human PKCε, 3H-PDBu competition, read-out: Ki PKCε) | pKi ([3]; read-out: Ki PKCδ) | pKi ([4]; C1b domain of human PKD1 (PKCμ), 3H-PDBu competition, read-out: Ki PKD1/PKCμ) |
| --- | --- | --- | --- | --- | --- | --- | --- | --- | --- | --- | --- | --- |
| CC1=C[C@H]2[C@@]3(O)[C@H](C)C[C@]4(OC(=O)[C@@H](O)Cc5ccccc5)[C@H]([C@@H]3C=C(CO)C[C@]2(O)C1=O)C4(C)C [Compound K101-C1354] | 0.2 to 0.6 µM | 5.70 to 6.00 | 7.22 to 7.52 | 7.52 to 9.00 |  |  |  |  |  |  |  |  |
| CC1=C[C@H]2[C@@]3(O)[C@H](C)C[C@]4(OC(=O)C[C@@H](N)c5ccccc5)[C@H]([C@@H]3C=C(CO)C[C@]2(O)C1=O)C4(C)C [Compound K101-C1357] | 2 to 5 µM | < 5.10 | 6.40 to 6.70 | 7.22 to 7.52 |  |  |  |  |  |  |  |  |
| CC1=C[C@H]2[C@@]3(O)[C@H](C)C[C@]4(OC(=O)C[C@H](N)Cc5ccccc5)[C@H]([C@@H]3C=C(CO)C[C@]2(O)C1=O)C4(C)C [Compound K101-C1358] | 1 to 2 µM | 6.40 to 6.70 | 7.52 to 9.00 | 8.00 to 8.30 |  |  |  |  |  |  |  |  |
| CC1=C[C@H]2[C@@]3(O)[C@H](C)C[C@]4(OC(=O)[C@H](CC5CCCCC5)N(C)C)[C@H]([C@@H]3C=C(CO)C[C@]2(O)C1=O)C4(C)C [Compound K101-C1365] | 0.6 to 1 µM | 5.22 to 5.40 | 6.70 to 7.00 | 7.22 to 7.52 |  |  |  |  |  |  |  |  |
| CC1=C[C@H]2[C@@]3(O)[C@H](C)C[C@]4(OC(=O)[C@H](N)CCc5ccc(C(F)(F)F)cc5)[C@H]([C@@H]3C=C(CO)C[C@]2(O)C1=O)C4(C)C [Compound K101-C135601] | 0.2 to 0.6 µM | 5.70 to 6.00 | 7.22 to 7.52 | 7.52 to 9.00 |  |  |  |  |  |  |  |  |
| CC1=C[C@H]2[C@@]3(O)[C@H](C)C[C@]4(OC(=O)[C@H](N)CCCCCCc5ccc(C(F)(F)F)cc5)[C@H]([C@@H]3C=C(CO)C[C@]2(O)C1=O)C4(C)C [Compound K101-C135901] | 0.06 to 0.1 µM | 5.70 to 6.00 | 7.22 to 7.52 | 7.52 to 9.00 | 7.22 to 7.52 |  |  |  |  |  |  |  |
| CC1=C[C@H]2[C@@]3(O)[C@H](C)C[C@]4(OC(=O)[C@@H](N)CCCCCCc5ccc(C(F)(F)F)cc5)[C@H]([C@@H]3C=C(CO)C[C@]2(O)C1=O)C4(C)C [Compound K101-C135902] | 0.01 to 0.03 µM |  | 8.00 to 8.30 | 8.00 to 8.30 | 7.52 to 9.00 | E (E=>60 nM and ≤10 nM) | 7.52 to 9.00 |  |  |  |  |  |
| CC1=C[C@H]2[C@@]3(O)[C@H](C)C[C@]4(OC(=O)[C@H](N)CCCCCCCCc5ccccc5)[C@H]([C@@H]3C=C(CO)C[C@]2(O)C1=O)C4(C)C [Compound K101-C136101] | 0.01 to 0.03 µM | 6.10 to 6.40 | 7.52 to 9.00 | 8.00 to 8.30 | 7.52 to 9.00 |  | 7.52 to 9.00 |  |  |  |  |  |
| CC1=C[C@H]2[C@@]3(O)[C@H](C)C[C@]4(OC(=O)[C@@H](N)CCCCCCCCc5ccccc5)[C@H]([C@@H]3C=C(CO)C[C@]2(O)C1=O)C4(C)C [Compound K101-C136102] | 0.001 to 0.01 µM | 7.22 to 7.52 | 7.52 to 9.00 | > 8.30 | > 8.30 |  | 8.00 to 8.30 |  |  |  |  |  |
| CCCCCCCCCCCCCC(=O)O[C@@H]1[C@@H](C)[C@@]2(O)[C@@H](C=C(CO)C[C@]3(O)C(=O)C(C)=C[C@@H]23)[C@@H]2C(C)(C)[C@]12OC(C)=O [Compound K103, 12-O-Tetradecanoylphorbol-13-acetate, reference compound] |  |  |  |  |  |  |  | < 0.001 µM | > 8.30 | > 8.30 | > 8.30 | > 8.30 |
